Measured values reported in PubChem BioAssay (NCI).
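Where inhibition never reached the appropriate level, the endpoint shown equals the highest concentration tested. Otherwise, values were interpolated linearly from a five-concentration, 48-hour dose response in 96-well plates. TGI marks complete inhibition of growth.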

Columns and labels:
Test in all cases: NCI-60 cell line screen, 48 h
ACHN renal = tested on: ACHN renal
MOLT-4 leukemia = tested on: MOLT-4 leukemia
NCI-H522 lung = tested on: NCI-H522 lung
IGROV1 ovarian = tested on: IGROV1 ovarian
SF-539 CNS = tested on: SF-539 CNS
OVCAR-3 ovarian = tested on: OVCAR-3 ovarian
TK-10 renal = tested on: TK-10 renal
SW-620 colon = tested on: SW-620 colon
MDA-MB-435 = tested on: MDA-MB-435
NCI-H460 lung = tested on: NCI-H460 lung
HCT-15 colon = tested on: HCT-15 colon
SNB-75 CNS = tested on: SNB-75 CNS
NCI/ADR-RES ovarian = tested on: NCI/ADR-RES ovarian
SK-MEL-28 melanoma = tested on: SK-MEL-28 melanoma
SN12C renal = tested on: SN12C renal
UACC-62 melanoma = tested on: UACC-62 melanoma
T-47D breast = tested on: T-47D breast
RPMI-8226 leukemia = tested on: RPMI-8226 leukemia
K-562 leukemia = tested on: K-562 leukemia
M14 melanoma = tested on: M14 melanoma
HCT-116 colon = tested on: HCT-116 colon
HS 578T breast = tested on: HS 578T breast
MALME-3M melanoma = tested on: MALME-3M melanoma
A498 renal = tested on: A498 renal
SK-MEL-5 melanoma = tested on: SK-MEL-5 melanoma
SNB-19 CNS = tested on: SNB-19 CNS
786-0 renal = tested on: 786-0 renal
CCRF-CEM leukemia = tested on: CCRF-CEM leukemia
EKVX NSCLC = tested on: EKVX NSCLC
COLO 205 colon = tested on: COLO 205 colon
NCI-H23 lung = tested on: NCI-H23 lung
SK-OV-3 ovarian = tested on: SK-OV-3 ovarian
OVCAR-5 ovarian = tested on: OVCAR-5 ovarian
MDA-N = tested on: MDA-N
OVCAR-8 ovarian = tested on: OVCAR-8 ovarian
PC-3 prostate = tested on: PC-3 prostate
RXF 393 renal = tested on: RXF 393 renal
NCI-H226 lung = tested on: NCI-H226 lung
A549 NSCLC = tested on: A549 NSCLC
HOP-92 NSCLC = tested on: HOP-92 NSCLC
SF-295 CNS = tested on: SF-295 CNS
SR leukemia = tested on: SR leukemia
UO-31 renal = tested on: UO-31 renal
HCC-2998 colon = tested on: HCC-2998 colon
U251 CNS = tested on: U251 CNS
SF-268 CNS = tested on: SF-268 CNS
HOP-62 NSCLC = tested on: HOP-62 NSCLC
LOX IMVI melanoma = tested on: LOX IMVI melanoma
DU-145 prostate = tested on: DU-145 prostate
HL-60(TB) leukemia = tested on: HL-60(TB) leukemia
OVCAR-4 ovarian = tested on: OVCAR-4 ovarian
CAKI-1 renal = tested on: CAKI-1 renal
HT29 colon = tested on: HT29 colon
MDA-MB-231 breast = tested on: MDA-MB-231 breast
SK-MEL-2 melanoma = tested on: SK-MEL-2 melanoma
MCF7 breast = tested on: MCF7 breast
UACC-257 melanoma = tested on: UACC-257 melanoma

Measured: TGI

O=S1(=O)OCCOS(=O)(=O)C1(F)Cc1ccccc1
not listed: MCF7 breast | UACC-257 melanoma
> 100 µM: all other assays above

COP(=O)(OC)C(N)Cc1c[nH]c2ccccc12 (stereo unspecified)
not listed: SF-539 CNS | UACC-62 melanoma | MALME-3M melanoma | 786-0 renal | CCRF-CEM leukemia | EKVX NSCLC | RXF 393 renal | HOP-92 NSCLC | SR leukemia | SF-268 CNS | HL-60(TB) leukemia
> 100 µM: all other assays above
